According to publication PMC11365428 (The Journal of Biological Chemistry, 2024):
Non-standard residues stand in square brackets, D forms with d. Residues, ends and D or L forms follow the SMILES beside them. pGlu = O=C1CC[C@@H](C(=O)O)N1

What was measured:
[1] = target: T1, apTKRPR-A (Aplysia californica, UniProt A0AAU7SSZ1); experiment: Receptor desensitization assay, protocol 2 (repeated agonist exposure), apTKRPR-A; type: cell-based; settings: 10 μM pretreatment 2-60 min without LiCl, wash, second 10 μM application for 15 min with LiCl; % of control; n = 5
T1 sequence (A0AAU7SSZ1 1-398): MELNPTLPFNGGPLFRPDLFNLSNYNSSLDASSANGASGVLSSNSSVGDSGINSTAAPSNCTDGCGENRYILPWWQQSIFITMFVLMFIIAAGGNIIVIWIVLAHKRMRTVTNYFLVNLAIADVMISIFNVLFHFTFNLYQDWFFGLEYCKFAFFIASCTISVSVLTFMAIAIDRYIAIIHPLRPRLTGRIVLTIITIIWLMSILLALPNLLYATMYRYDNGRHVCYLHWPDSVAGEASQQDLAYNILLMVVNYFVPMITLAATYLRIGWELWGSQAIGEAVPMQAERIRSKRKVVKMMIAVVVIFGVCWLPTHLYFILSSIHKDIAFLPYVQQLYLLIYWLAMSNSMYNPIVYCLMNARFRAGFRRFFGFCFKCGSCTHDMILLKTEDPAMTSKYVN
Protocol: Therefore, we adopted two protocols to study the desensitization of apTKRPRs. The protocols were performed using a procedure modified from previous work ([87], [88], [89]).
Protocol 2 ([89]): To simulate repeated stimulation with an agonist, we examined agonist-induced desensitization by quantifying the accumulation level of IP1 after two applications of the agonist/ligand. Because the IP1 accumulation assay involves using LiCl to stop the degradation of IP1, in this protocol, LiCl was applied only during the second application of the agonist. Specifically, to elicit desensitization, cells were first exposed to 10 μM apTKRP-2b in the absence of LiCl for various pretreatment durations (pretreatment stage/phase Ⅰ). After this agonist exposure, cells were washed (three times) rapidly with PBS (phase Ⅱ), and the wash was consistently performed in each experiment. Responsiveness of the receptor was then assessed by measuring intracellular concentrations of IP1 accumulation in response to a second application of 10 μM apTKRP-2b for 15 min in the presence of LiCl (phase Ⅲ) (Fig. S11).

[2] = target: apTKRPR-B 14A (Aplysia californica, UniProt A0AAU7STS1, S392A/S396A/S399A/S407A/S415A/S421A/S426A/S434A/T393A/T411A/T412A/T422A/T424A/T435A); experiment: IP1 accumulation assay, Ser/Thr-to-Ala mutant apTKRPR-B 14A; type: cell-based
Chain of apTKRPR-B 14A (A0AAU7STS1 entry or part of it with the stated changes): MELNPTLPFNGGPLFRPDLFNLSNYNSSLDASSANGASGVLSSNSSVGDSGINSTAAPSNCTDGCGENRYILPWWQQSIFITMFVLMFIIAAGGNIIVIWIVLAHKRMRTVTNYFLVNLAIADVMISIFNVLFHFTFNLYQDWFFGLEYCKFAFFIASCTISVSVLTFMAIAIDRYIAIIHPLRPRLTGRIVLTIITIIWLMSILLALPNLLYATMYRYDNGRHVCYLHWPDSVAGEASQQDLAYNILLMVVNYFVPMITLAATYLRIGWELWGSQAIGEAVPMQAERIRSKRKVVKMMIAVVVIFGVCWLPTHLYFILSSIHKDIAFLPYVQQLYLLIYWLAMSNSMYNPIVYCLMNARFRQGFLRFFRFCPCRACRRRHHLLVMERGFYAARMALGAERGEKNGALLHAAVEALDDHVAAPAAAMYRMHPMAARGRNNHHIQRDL
Protocol: To express putative Aplysia receptors transiently in CHO-K1 cells, the cDNAs were subcloned into the pcDNA3.1(+) or pcDNA3.1(+)-FLAG (for ELISA experiments only, see “Cell surface expression analysis by ELISA” section) expression vector. On the day before transfection, the CHO-K1 cells were passaged into 60 mm diameter tissue culture–treated dishes, and the transfection experiments were performed when the cells were grown to 70 to 90% confluence. CHO-K1 cells were transfected with the cDNA plasmid constructs using Turbofect Transfection reagent (Thermo Fisher Scientific, R0531), following the manufacturer’s instructions. In brief, 4 μg of the putative receptor plasmids [in pcDNA3.1(+) or pcDNA3.1(+)-FLAG] were mixed with 400 μl of Opti-MEM (Gibco, 11058021), followed by the addition of 15 μl of TurboFect Transfection reagent and incubated at room temperature for 15 min. […]
The next day, transfected cells were trypsinized and reseeded in an opaque white 96-well half-area (Corning, 3688) or 384-well tissue culture–treated plates (Corning, 3570) at a density of 20,000 cells/well in F-12K and 10% FBS and incubated at 37 °C in a humidified incubator containing 5% CO2 overnight. On the third day, the activation of the putative receptors was detected by monitoring intracellular IP1 concentration using an IP-One Gq kit (Cisbio, 62IPAPEB) in Tecan Spark. […]

## CC(C)C[C@H](NC(=O)[C@H](Cc1c[nH]cn1)NC(=O)[C@@H]1CCCN1C(=O)[C@@H]1CCC(=O)N1)C(=O)NCC(=O)N[C@@H](Cc1ccccc1)C(=O)N[C@@H](Cc1c[nH]cn1)C(=O)NCC(=O)N[C@@H](CO)C(=O)N[C@@H](CCCNC(=N)N)C(N)=O [apTKRP-2b] ([pGlu]PHLGFHGSR-NH2)
[1]
  IP1 accumulation after pretreatment, apTKRPR-A (protocol 2): IP1 accumulation was less after the second exposure
[2]
  EC50: 24.5 nM
